In the experiment the target is human wild type-CFTR (Homo sapiens, UniProt P13569). Briefly: Cell-based YFP assay. The arrangement: expressed in transfected cells; host or cells: CHO-K1 (Chinese hamster ovary). Particulars: CHO-K1 cells expressing human wild type-CFTR and YFP-H148Q/I152L; forskolin 20 μM = 100% activity; read-out: Cell-based YFP Assay (EC50) Concentration Range. Summed up: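 CHO-K1 cells co-expressing human wild-type CFTR and YFP-H148Q/I152L halide sensor, grown 48 h at 37 °C, then in PBS. YFP quenching by I⁻ influx read at 37 °C after adding 140 mM I⁻ solution, sampled every 0.4 s for 14 s. Triplicates averaged; EC50 fitted.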

Each structure is given as a SMILES string. A value given as a limit tells only on which side of the number the result lay.

human wild type-CFTR, sequence (P13569 whole entry): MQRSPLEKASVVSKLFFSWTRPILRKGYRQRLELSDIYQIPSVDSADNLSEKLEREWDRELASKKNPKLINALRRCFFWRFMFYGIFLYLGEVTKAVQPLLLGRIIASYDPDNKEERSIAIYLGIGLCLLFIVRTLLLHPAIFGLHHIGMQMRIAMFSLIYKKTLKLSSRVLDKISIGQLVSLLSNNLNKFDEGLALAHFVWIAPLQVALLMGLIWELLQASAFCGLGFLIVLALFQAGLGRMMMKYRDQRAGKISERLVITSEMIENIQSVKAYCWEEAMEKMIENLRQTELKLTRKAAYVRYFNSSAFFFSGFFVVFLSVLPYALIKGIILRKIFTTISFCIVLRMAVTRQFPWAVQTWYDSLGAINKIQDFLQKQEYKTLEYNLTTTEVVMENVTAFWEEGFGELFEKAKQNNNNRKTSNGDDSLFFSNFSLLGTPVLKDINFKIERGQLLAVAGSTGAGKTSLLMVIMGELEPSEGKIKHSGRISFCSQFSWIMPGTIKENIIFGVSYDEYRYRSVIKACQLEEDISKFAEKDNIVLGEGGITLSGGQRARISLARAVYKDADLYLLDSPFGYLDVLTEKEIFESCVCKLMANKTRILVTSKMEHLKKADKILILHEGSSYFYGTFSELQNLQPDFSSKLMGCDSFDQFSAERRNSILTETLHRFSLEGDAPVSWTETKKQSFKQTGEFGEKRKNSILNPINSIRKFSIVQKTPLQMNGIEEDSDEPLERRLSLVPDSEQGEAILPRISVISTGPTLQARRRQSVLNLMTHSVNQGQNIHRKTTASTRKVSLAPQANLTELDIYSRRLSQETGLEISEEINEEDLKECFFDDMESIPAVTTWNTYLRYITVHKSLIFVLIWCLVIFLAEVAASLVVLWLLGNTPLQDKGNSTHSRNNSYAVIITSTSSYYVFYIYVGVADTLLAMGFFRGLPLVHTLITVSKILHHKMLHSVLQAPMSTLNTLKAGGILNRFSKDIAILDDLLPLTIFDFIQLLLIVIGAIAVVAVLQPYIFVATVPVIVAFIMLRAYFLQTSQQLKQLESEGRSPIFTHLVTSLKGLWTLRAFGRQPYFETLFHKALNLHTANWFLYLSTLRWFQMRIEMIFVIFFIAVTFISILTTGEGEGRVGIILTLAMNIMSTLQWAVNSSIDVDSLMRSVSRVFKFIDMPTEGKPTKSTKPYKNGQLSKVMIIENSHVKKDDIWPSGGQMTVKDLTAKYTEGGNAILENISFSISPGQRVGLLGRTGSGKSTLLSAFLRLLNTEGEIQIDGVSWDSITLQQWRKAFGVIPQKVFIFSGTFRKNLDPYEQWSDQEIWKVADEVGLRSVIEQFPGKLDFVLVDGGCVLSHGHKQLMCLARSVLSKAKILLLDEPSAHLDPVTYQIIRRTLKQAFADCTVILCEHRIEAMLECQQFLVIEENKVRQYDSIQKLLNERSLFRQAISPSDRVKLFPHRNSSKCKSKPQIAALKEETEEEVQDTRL

Turning to `O=C(Nc1ccc(N2CCOCC2)cn1)c1cc2nccc(-c3ccc(OC(F)(F)F)c(Cl)c3)n2n1` [Compound 299, 7-(3-chloro-4-(trifluoromethoxy)phenyl)-N-(5-morpholinopyridin-2-yl) pyrazolo[1,5-a]pyrimidine-2-carboxamide], the EC50 is no less than 2 µM.

As to `CCOc1ccc(NC(=O)c2cc3nccc(-c4ccccc4)n3n2)cc1` [Compound 300, N-(4-ethoxyphenyl)-7-phenylpyrazolo[1,5-a]pyrimidine-2-carboxamide], the EC50 is no less than 2 µM.

Take `CCOc1ccc(NC(=O)c2cc3nccc(-c4cccc(C)c4)n3n2)cc1` [Compound 301, N-(4-ethoxyphenyl)-7-(m-tolyl)pyrazolo[1,5-a] pyrimidine-2-carboxamide]: the EC50 is no less than 2 µM.

With `CCOc1ccc(NC(=O)c2cc3nccc(-c4ccc(F)c(C)c4)n3n2)cc1` [Compound 302, N-(4-ethoxyphenyl)-7-(4-fluoro-3-methylphenyl)pyrazolo [1,5-a]pyrimidine-2-carboxamide], the EC50 was no less than 2 µM.

With `CCOc1ccc(NC(=O)c2cc3nccc(-c4cccs4)n3n2)cc1` [Compound 303, N-(4-ethoxyphenyl)-7-(thiophen-2-yl) pyrazolo[1,5-a]pyrimidine-2-carboxamide], the EC50 was no less than 2 µM.

For `CCOc1ccc(NC(=O)c2cc3nccc(-c4ccc(Cl)cc4F)n3n2)cc1` [Compound 304, 7-(4-chloro-2-fluorophenyl)-N-(4-ethoxyphenyl)pyrazolo [1,5-a]pyrimidine-2-carboxamide], the EC50 was no less than 2 µM.

For the molecule `COC(=O)c1ccc(NC(=O)c2cc3nccc(-c4ccccc4)n3n2)cc1` [Compound 305, methyl 4-(7-phenylpyrazolo[1,5-a]pyrimidine-2-carboxamido)benzoate], the EC50 was no less than 2 µM.

On to `Cc1cccc(-c2ccnc3cc(C(=O)Nc4ccc(N5CCOCC5)cn4)nn23)c1` [Compound 306, N-(5-morpholinopyridin-2-yl)-7-(m-tolyl)pyrazolo[1,5-a] pyrimidine-2-carboxamide], for which the EC50 was no less than 2 µM.

As to `CCOc1ccc(NC(=O)c2cc3nccc(-c4ccc(F)c(OC)c4)n3n2)cc1` [Compound 307, N-(4-ethoxyphenyl)-7-(4-fluoro-3-methoxyphenyl)pyrazolo [1,5-a]pyrimidine-2-carboxamide], the EC50 was in the range of 0.2 to 2 µM.

For the molecule `CCOc1ccc(NC(=O)c2cc3nccc(-c4ccc(OC)c(F)c4)n3n2)cc1` [Compound 308, N-(4-ethoxyphenyl)-7-(3-fluoro-4-methoxyphenyl)pyrazolo [1,5-a]pyrimidine-2-carboxamide], the EC50 is 0.2 to 2 µM.

Regarding `COc1ccc(-c2ccnc3cc(C(=O)Nc4ccc5c(ccn5C)c4)nn23)cc1OC` [Compound 309, 7-(3,4-dimethoxyphenyl)-N-(1-methyl-1H-indol-5-yl)pyrazolo [1,5-a]pyrimidine-2-carboxamide], the EC50 was less than 0.2 µM.

Consider `COc1ccc(-c2ccnc3cc(C(=O)Nc4ccc5c(c4)OCO5)nn23)cc1OC` [Compound 310, N-(benzo[d][1,3]dioxol-5-yl)-7-(3,4-dimethoxyphenyl)pyrazolo[1,5-a]pyrimidine-2-carboxamide], for which the EC50 was less than 0.2 µM.

On to `COc1ccc(-c2ccnc3cc(C(=O)Nc4ccc(N5CCOCC5)cc4F)nn23)cc1OC` [Compound 311, 7-(3,4-dimethoxyphenyl)-N-(2-fluoro-4-morpholinophenyl) pyrazolo[1,5-a]pyrimidine-2-carboxamide], for which the EC50 is less than 0.2 µM.

Turning to `COc1ccc(-c2ccnc3cc(C(=O)Nc4ccc(N(C)C)cn4)nn23)cc1OC` [Compound 312, 7-(3,4-dimethoxyphenyl)-N-(5-(dimethylamino)pyridin-2-yl)pyrazolo [1,5-a]pyrimidine-2-carboxamide], the EC50 was less than 0.2 µM.

For the molecule `CCOc1ccc(NC(=O)c2cc3nccc(-c4ccc5c(c4)CCO5)n3n2)cc1` [Compound 313, 7-(2,3-dihydrobenzofuran-5-yl)-N-(4-ethoxyphenyl)pyrazolo [1,5-a]pyrimidine-2-carboxamide], the EC50 is no less than 2 µM.

In the case of `CCOc1ccc(NC(=O)c2cc3nccc(-c4ccc(OC)c(OC)c4)n3n2)nc1` [Compound 314, 7-(3,4-dimethoxyphenyl)-N-(5-ethoxypyridin-2-yl)pyrazolo[1,5-a] pyrimidine-2-carboxamide], the EC50 was less than 0.2 µM.

Consider `CCOc1ccc(NC(=O)c2cc3nccc(-c4cc(OC)cc(OC)c4)n3n2)cc1` [Compound 315, 7-(3,5-dimethoxyphenyl)-N-(4-ethoxyphenyl)pyrazolo [1,5-a]pyrimidine-2-carboxamide], for which the EC50 was no less than 2 µM.

As to `CCOc1ccc(NC(=O)c2cc3nccc(-c4ccc(F)c(Cl)c4)n3n2)cc1` [Compound 316, 7-(3-chloro-4-fluorophenyl)-N-(4-ethoxyphenyl)pyrazolo [1,5-a]pyrimidine-2-carboxamide], the EC50 is no less than 2 µM.

With `COc1ccc(-c2ccnc3cc(C(=O)N4CCN(C(=O)c5ccccc5OC)[C@@H](C)C4)nn23)cc1OC` [Compound 317, (S)-(7-(3,4-dimethoxyphenyl)pyrazolo[1,5-a]pyrimidin-2-yl)(4-(2-methoxybenzoyl)-3-methylpiperazin-1-yl) methanone], the EC50 is 0.2 to 2 µM.

Regarding `COc1cccc(C(=O)N2CCN(C(=O)c3cc4nccc(-c5ccc(OC)c(OC)c5)n4n3)C[C@@H]2C)c1` [Compound 318, (S)-(7-(3,4-dimethoxyphenyl)pyrazolo[1,5-a]pyrimidin-2-yl)(4-(3-methoxybenzoyl)-3-methylpiperazin-1-yl) methanone], the EC50 was in the range of 0.2 to 2 µM.

As to `COc1ccc(C(=O)N2CCN(C(=O)c3cc4nccc(-c5ccc(OC)c(OC)c5)n4n3)C[C@@H]2C)cc1` [Compound 319, (S)-(7-(3,4-dimethoxyphenyl)pyrazolo[1,5-a]pyrimidin-2-yl)(4-(4-methoxybenzoyl)-3-methylpiperazin-1-yl) methanone], the EC50 fell in the range of 0.2 to 2 µM.

`COc1ccc(-c2ccnc3cc(C(=O)N[C@]45CC[C@](N6CCOCC6)(CC4)CC5)nn23)cc1OC` [Compound 320, 7-(3,4-dimethoxyphenyl)-N-(4-morpholinobicyclo[2.2.2]octan-1-yl) pyrazolo[1,5-a]pyrimidine-2-carboxamide]: the EC50 was in the range of 0.2 to 2 µM.

With `COc1ccc(-c2ccnc3cc(C(=O)N4CCN(C(=O)OC(C)(C)C)[C@H](C)C4)nn23)cc1OC` [Compound 321, tert-butyl (R)-4-(7-(3,4-dimethoxyphenyl)pyrazolo [1,5-a]pyrimidine-2-carbonyl)-2-methylpiperazine-1-carboxylate], the EC50 lay within 0.2 to 2 µM.

For `COc1ccc(-c2ccnc3cc(C(=O)N4CCN[C@H](C)C4)nn23)cc1OC` [Compound 322, (R)-(7-(3,4-dimethoxyphenyl)pyrazolo[1,5-a]pyrimidin-2-yl)(3-methylpiperazin-1-yl)methanone], the EC50 is no less than 2 µM.

On to `CCOc1ccc(NC(=O)c2cc3nccc(-c4ccc(N(C)C)cc4)n3n2)cc1` [Compound 324, 7-(4-(dimethylamino)phenyl)-N-(4-ethoxyphenyl)pyrazolo [1,5-a]pyrimidine-2-carboxamide], for which the EC50 is no less than 2 µM.

`COc1ccc(NC(=O)c2cc3nccc(-c4ccc(OC)c(OC)c4)n3n2)c(F)c1` [Compound 325, 7-(3,4-dimethoxyphenyl)-N-(2-fluoro-4-methoxyphenyl)pyrazolo [1,5-a]pyrimidine-2-carboxamide]: the EC50 is less than 0.2 µM.

As to `COc1ccc(-c2ccnc3cc(C(=O)Nc4ccc(OC)c(F)c4F)nn23)cc1OC` [Compound 326, N-(2,3-difluoro-4-methoxyphenyl)-7-(3,4-dimethoxyphenyl)pyrazolo [1,5-a]pyrimidine-2-carboxamide], the EC50 is 0.2 to 2 µM.

On to `COc1ccc(-c2ccnc3cc(C(=O)Nc4ccc(O)cn4)nn23)cc1OC` [Compound 327, 7-(3,4-dimethoxyphenyl)-N-(5-hydroxypyridin-2-yl)pyrazolo[1,5-a] pyrimidine-2-carboxamide], for which the EC50 is less than 0.2 µM.

For the molecule `COCCOCOC(=O)[C@H]1CC[C@H](NC(=O)c2cc3nccc(-c4ccc(OC)c(OC)c4)n3n2)CC1` [Compound 328, (2-methoxyethoxy)methyl (1R,4R)-4-(7-(3,4-dimethoxyphenyl)pyrazolo [1,5-a]pyrimidine-2-carboxamido)cyclohexane-1-carboxylate], the EC50 lay in the range of 0.2 to 2 µM.

Turning to `COCCOCOC(=O)c1ccc(NC(=O)c2cc3nccc(-c4ccc(OC)c(OC)c4)n3n2)cc1` [Compound 329, (2-methoxyethoxy)methyl 4-(7-(3,4-dimethoxyphenyl)pyrazolo [1,5-a]pyrimidine-2-carboxamido)benzoate], the EC50 is less than 0.2 µM.

On to `CCOC(=O)[C@H]1CC[C@H](NC(=O)c2cc3nccc(-c4ccc(OC)c(OC)c4)n3n2)CC1` [Compound 330, ethyl (1R,4R)-4-(7-(3,4-dimethoxyphenyl)pyrazolo [1,5-a]pyrimidine-2-carboxamido)cyclohexane-1-carboxylate], for which the EC50 lay within 0.2 to 2 µM.

Consider `CCCOC(=O)[C@H]1CC[C@H](NC(=O)c2cc3nccc(-c4ccc(OC)c(OC)c4)n3n2)CC1` [Compound 331, propyl (1R,4R)-4-(7-(3,4-dimethoxyphenyl)pyrazolo [1,5-a]pyrimidine-2-carboxamido)cyclohexane-1-carboxylate], for which the EC50 fell in the range of 0.2 to 2 µM.

Take `CCCCOC(=O)[C@H]1CC[C@H](NC(=O)c2cc3nccc(-c4ccc(OC)c(OC)c4)n3n2)CC1` [Compound 332, butyl (1r,4r)-4-(7-(3,4-dimethoxyphenyl)pyrazolo [1,5-a]pyrimidine-2-carboxamido)cyclohexane-1-carboxylate]: the EC50 is 0.2 to 2 µM.

For `CCCCCCCCCCOC(=O)[C@H]1CC[C@H](NC(=O)c2cc3nccc(-c4ccc(OC)c(OC)c4)n3n2)CC1` [Compound 333, decyl (1r,4r)-4-(7-(3,4-dimethoxyphenyl)pyrazolo [1,5-a]pyrimidine-2-carboxamido)cyclohexane-1-carboxylate], the EC50 is no less than 2 µM.
